Source: US10526343B2, “Heterocyclic systems and pharmaceutical applications thereof” (University of Sharjah, priority 2018, dated 2020)
Converted amounts (≈) assume the structure as drawn.

Key:
Type in all cases: cell-based
[1] = tested on: Bacillus subtilis (environmental isolate); assay: Cell viability assay (resazurin) screening for antibacterial activity; parameters: key: Positive: A positive result indicates antibacterial activity expressed as growth inhibition; Negative: a negative result indicates no antibacterial activity expressed as bacterial growth at the tested concentration; settings: single high concentration of 1 mg/mL
[2] = tested on: S. aureus (ATCC 25923); assay: MIC by broth microdilution; settings: Staphylococcus aureus, ATCC25923
Method: (§1) Bacteria of the genus Staphylococcus were selected for MIC investigation due to its clinical importance. Compounds showing activity against S. aureus (ATCC 25923) were tested against 10 multidrug-resistant strains of Staphylococcus species, including: clinical isolates methicillin-resistant Staphylococcus aureus (MRSA) strains MRSA-1, MRSA-2, and MRSA-3, and environmental isolates S. saprophyticus (strains UDH-1, UDH-2, UDH-3 and UDH-4), S. haemolyticus (strains UDH-6 and UDH-7), and S. epidermidis strain UDH-5.
(§2) A broth microdilution method was used to measure MIC according to the Clinical and Laboratory Standards Institute guidelines. Two-fold serial dilutions of the test compound (8 concentrations ranged between 100-0.78 μg/mL) were tested. Two reference antibiotics were used as quality controls (ciprofloxacin and amikacin). In each experiment, solvent (DMSO) was used as a negative control, un-treated control (composing of bacteria in Mueller-Hinton broth) was used as a growth control, blank (culture media alone) was used as sterility control. The 96-well microplate with the test compounds was incubated for 20 hours at 37° C. Turbidity in wells indicated bacterial growth. […] For the definite determination of MIC, CellTiter-Blue® Cell Viability Assay (Promega, USA) was used (as above). The MIC was defined as the lowest compound concentration that prevented the color change of the Cell Viability solution (absence of bacterial growth; thus, suspension remained blue in color). For the definite determination of MIC, CellTiter-Blue® Cell Viability Assay (Promega, USA) was used (as above). To each well of the 96-well microplate, 20 μL of the Cell Viability Assay solution was added to the overnight (20 hours culture) and incubated at 37° C. for 4 hours. After the end of the incubation, pink and blue colors were used to differentiate viable from dead bacterial suspensions, respectively. The MIC was defined as the lowest compound concentration that prevented the color change.

[3] = tested on: Escherichia coli (ATCC 25922); assay: Cell viability assay (resazurin) screening for antibacterial activity; parameters: key: Positive: A positive result indicates antibacterial activity expressed as growth inhibition; Negative: a negative result indicates no antibacterial activity expressed as bacterial growth at the tested concentration; settings: single high concentration of 1 mg/mL
[4] = tested on: Pseudomonas aeruginosa (ATCC 27853); assay: as above; parameters: key: Positive: A positive result indicates antibacterial activity expressed as growth inhibition; Negative: a negative result indicates no antibacterial activity expressed as bacterial growth at the tested concentration; settings: single high concentration of 1 mg/mL
[5] = tested on: Enterococcus faecalis (ATCC 29212); assay: as above; parameters: key: Positive: A positive result indicates antibacterial activity expressed as growth inhibition; Negative: a negative result indicates no antibacterial activity expressed as bacterial growth at the tested concentration; settings: single high concentration of 1 mg/mL
[6] = tested on: MRSA-2 (clinical isolate, methicillin-resistant Staphylococcus aureus); assay: MIC by broth microdilution
Method: (§3) Bacteria of the genus Staphylococcus were selected for MIC investigation due to its clinical importance.
as §2, with “Two reference antibiotics were used as quality controls (ciprofloxacin and amikacin).” left out

[7] = tested on: MRSA-1 (clinical isolate, methicillin-resistant Staphylococcus aureus); assay: MIC by broth microdilution; settings: Staphylococcus aureus, MRSA; clinical isolate
Method: as §3
as §2, with “Two reference antibiotics were used as quality controls (ciprofloxacin and amikacin).” left out

[8] = tested on: MRSA-3 (clinical isolate, methicillin-resistant Staphylococcus aureus); assay: MIC by broth microdilution
Method: as §3
as §2, with “Two reference antibiotics were used as quality controls (ciprofloxacin and amikacin).” left out

[9] = tested on: Staphylococcus aureus (ATCC 25923); assay: Cell viability assay (resazurin) screening for antibacterial activity; parameters: key: Positive: A positive result indicates antibacterial activity expressed as growth inhibition; Negative: a negative result indicates no antibacterial activity expressed as bacterial growth at the tested concentration; settings: single high concentration of 1 mg/mL
[10] = tested on: UDH-2 (environmental isolate, S. saprophyticus); assay: MIC by broth microdilution; settings: Staphylococcus saprophyticus
Method: as §1
(§4) All these strains were resistant to at least three antibiotics from different classes, as confirmed by a disk diffusion assay.
as §2

[11] = tested on: UDH-4 (environmental isolate, S. saprophyticus); assay: MIC by broth microdilution; settings: Staphylococcus saprophyticus
Method: as §1, §4, §2

[12] = tested on: UDH-3 (environmental isolate, S. saprophyticus); assay: MIC by broth microdilution; settings: Staphylococcus saprophyticus; environmental isolate
Method: as §1, §4, §2

[13] = tested on: UDH-1 (environmental isolate, S. saprophyticus); assay: MIC by broth microdilution; settings: for MIC: Staphylococcus saprophyticus, environmental isolate; for times lower than MIC of ciprofloxacin: UDH-1
Method: as §1, §4, §2

[14] = tested on: UDH-5 (environmental isolate, S. epidermidis); assay: MIC by broth microdilution; settings: Staphylococcus epidermidis
Method: as §1, §4, §2

[15] = tested on: UDH-7 (environmental isolate, S. haemolyticus); assay: MIC by broth microdilution; settings: Staphylococcus haemolyticus; environmental isolate
Method: as §1, §4, §2

[16] = tested on: UDH-6 (environmental isolate, S. haemolyticus); assay: MIC by broth microdilution; settings: Staphylococcus haemolyticus; environmental isolate
Method: as §1, §4, §2

| Compound | MIC [2] | MIC [6] | MIC [7] | MIC [8] | MIC [10] | MIC [11] | MIC [12] | MIC [13] | times lower than MIC of ciprofloxacin [13] | MIC [14] | antibacterial activity, Bacillus subtilis [1] | antibacterial activity, Escherichia coli [3] | antibacterial activity, Pseudomonas aeruginosa [4] | antibacterial activity, Enterococcus faecalis [5] | antibacterial activity, Staphylococcus aureus [9] | MIC [15] | MIC [16] |
| --- | --- | --- | --- | --- | --- | --- | --- | --- | --- | --- | --- | --- | --- | --- | --- | --- | --- |
| COC(=O)CC1COc2c(cc3c4c2CCCN4CCC3)-c2c(NC(C)(C)C)n3c(-c4ccc(Br)cc4)csc3[n+]21 (stereo not shown) [Compound 1q] | 3.12 µg/mL | 6.25 µg/mL | 6.25 µg/mL | 6.25 µg/mL | 6.25 µg/mL | 3.12 µg/mL | 12.5 µg/mL | 6.25 µg/mL | approximately 10 times | 3.12 µg/mL | Positive | Negative | Negative | Positive | Positive | 12.5 µg/mL | 12.5 µg/mL |
| COC(=O)CC1COc2c(cc3c4c2CCCN4CCC3)-c2c(NC(C)(C)C)n3c(-c4ccc(F)c(F)c4)csc3[n+]21 (stereo not shown) [Compound 1s] | 6.25 µg/mL | 6.25 µg/mL | 6.25 µg/mL | 6.25 µg/mL | 25 µg/mL | 6.25 µg/mL | 12.5 µg/mL | 12.5 µg/mL |  | 3.12 µg/mL | Positive | Negative | Negative | Positive | Positive | 25 µg/mL | 25 µg/mL |
| COC(=O)CC1COc2c(cc3c4c2CCCN4CCC3)-c2c(NC(C)(C)C)n3c(-c4ccc(Cl)cc4Cl)c(C)sc3[n+]21 (stereo not shown) [Compound 1x] | 3.12 µg/mL | 6.25 µg/mL | 6.25 µg/mL | 6.25 µg/mL | 6.25 µg/mL | 3.12 µg/mL | 6.25 µg/mL | 6.25 µg/mL | approximately 10 times | 1.56 µg/mL | Positive |  | Negative | Positive | Positive | 12.5 µg/mL | 6.25 µg/mL |

Continued by falling MIC [2], values first:

| MIC [2] | MIC [6] | MIC [7] | MIC [8] | MIC [10] | MIC [11] | MIC [12] | MIC [13] | times lower than MIC of ciprofloxacin [13] | MIC [14] | Compound | antibacterial activity, Bacillus subtilis [1] | antibacterial activity, Escherichia coli [3] | antibacterial activity, Pseudomonas aeruginosa [4] | antibacterial activity, Enterococcus faecalis [5] | antibacterial activity, Staphylococcus aureus [9] | MIC [15] | MIC [16] |
| --- | --- | --- | --- | --- | --- | --- | --- | --- | --- | --- | --- | --- | --- | --- | --- | --- | --- |
| 6.25 µg/mL | 12.5 µg/mL | 12.5 µg/mL | 12.5 µg/mL | 12.5 µg/mL | 12.5 µg/mL | 12.5 µg/mL | 12.5 µg/mL |  | 6.25 µg/mL | COC(=O)CC1COc2c(cc3c4c2CCCN4CCC3)-c2c(NC(C)(C)C)n3c(-c4ccc(F)cc4)c(C)sc3[n+]21 (stereo not shown) [Compound 1n] | Positive | Negative | Negative | Positive | Positive | 25 µg/mL | 25 µg/mL |
| 4 µg/mL (≈ 6.83 µM) | 8 µg/mL (≈ 13.7 µM) | 16 µg/mL (≈ 27.3 µM) | 2 µg/mL (≈ 3.42 µM) | 0.25 µg/mL (≈ 0.427 µM) | < 0.25 µg/mL | 0.5 µg/mL (≈ 0.854 µM) | 8 µg/mL (≈ 13.7 µM) |  | < 0.25 µg/mL | NCC[C@H](O)C(=O)N[C@@H]1C[C@H](N)[C@@H](O[C@H]2O[C@H](CN)[C@@H](O)[C@H](O)[C@H]2O)[C@H](O)[C@H]1O[C@H]1O[C@H](CO)[C@@H](O)[C@H](N)[C@H]1O [Amikacin, amikacin, reference compound] |  |  |  |  |  | 4 µg/mL (≈ 6.83 µM) | 4 µg/mL (≈ 6.83 µM) |
